The test system of one experiment is S. aureus R33 MRSA. It counts as cell-based, Staphylococcus aureus. The settings on record: R33. How it is done:
(§1) Antibacterial activity of fermentation samples or purified samples was determined by Mueller-Hinton Agar diffusion bioassays using M. luteus ATCC 4698 as the indicator strain. Susceptibility testing (minimum inhibitory concentration [MIC]) for all aerobic organisms, with the exception of S. pneumoniae, was performed following the recommendations of CLSI. Susceptibility testing of S. pneumoniae was performed by two-fold serial dilutions in brain-heart-infusion broth supplemented with 50 μg/ml Ca^2+. Vancomycin was used as a reference antibiotic, and plates were incubated aerobically, with shaking, for 18–20 hr at 37°C with the MIC defined as the lowest concentration of drug that prevented visible growth.

The test system of a further experiment is S. aureus SH1000. Type of experiment: cell-based, Staphylococcus aureus. The settings on record: SH1000. As for the experimental part:
as §1

The subject of the next experiment is S. pneumoniae BAA-255. Type of experiment: cell-based, Streptococcus pneumoniae. The conditions noted are these: BAA-255. How it is done: as §1
For another experiment, the system named is M. luteus ATCC4698. It counts as cell-based, Micrococcus luteus. The settings on record: ATCC4698. How it is done: as §1
The next experiment concerns E. faecalis ATCC29212. Type of experiment: cell-based. The conditions noted are these: ATCC29212. How it is done:
as §1

In the next experiment the test system is E. faecium 7131121 VRE. Type of experiment: cell-based. The settings on record: 7131121 VRE. How it is done: as §1
Another experiment has as its system E. faecium ATCC19579. It counts as cell-based. The conditions noted are these: ATCC19579. How it is done: as §1
The next experiment concerns S. epidermidis NCTC11047. It counts as cell-based. The conditions noted are these: NCTC11047. How it is done: as §1

Converted amounts (≈) assume the structure as drawn. Some results are limits rather than exact numbers.

Consider `C=C1NC(=O)C2NC(=O)[C@H](CC(C)C)NC(=O)C(NC(=O)[C@@H]3CSC(C)C(NC(=O)[C@H](Cc4ccccc4)NC(=O)C4NC(=O)[C@@H](N)CSC4C)C(=O)N[C@@H](CC(C)C)C(=O)N4CCC[C@H]4C(=O)NCC(=O)NCC(=O)NCC(=O)N[C@@H](C)C(=O)N[C@@H](C(C)C)C(=O)N3)C(C)SC[C@H](NC(=O)[C@H](CCC(=O)O)NC1=O)C(=O)N[C@@H]([C@@H](C)CC)C(=O)NC=CSC2C` (stereo partly drawn) [G10A], for which the “MIC S. aureus R33 MRSA” value in the experiment on S. aureus R33 MRSA is 64, >64 μg/ml. Besides, the “MIC S. aureus SH1000” value against S. aureus SH1000 was more than 64 µg/mL. The “MIC S. pneumoniae BAA-255” value against S. pneumoniae BAA-255 was 8 µg/mL (≈ 4.35 µM). Moreover, the “MIC M. luteus ATCC4698” value with M. luteus ATCC4698 worked out at 8 µg/mL (≈ 4.35 µM). Moreover, in the experiment with E. faecalis ATCC29212, the “MIC E. faecalis ATCC29212” value is more than 64 µg/mL. Also, the “MIC E. faecium 7131121 VRE” value in the experiment on E. faecium 7131121 VRE is more than 64 µg/mL. Further, the “MIC E. faecium ATCC19579” value against E. faecium ATCC19579 was more than 64 µg/mL. Also, the “MIC S. epidermidis NCTC11047” value in the experiment with S. epidermidis NCTC11047 was 64, >64 μg/ml.
As for `C=C1NC(=O)C2NC(=O)[C@H](CC(C)C)NC(=O)C(NC(=O)[C@@H]3CSC(C)C(NC(=O)[C@H](Cc4ccccc4)NC(=O)C4NC(=O)[C@@H](N)CSC4C)C(=O)N[C@@H](CC(C)C)C(=O)N4CCC[C@H]4C(=O)N[C@@H](C)C(=O)NCC(=O)NCC(=O)NCC(=O)N[C@@H](C(C)C)C(=O)N3)C(C)SC[C@H](NC(=O)[C@H](CCC(=O)O)NC1=O)C(=O)N[C@@H]([C@@H](C)CC)C(=O)NC=CSC2C` (stereo partly drawn) [G7A], the “MIC S. aureus SH1000” value in the experiment with S. aureus SH1000 was more than 64 µg/mL. Further, the “MIC S. pneumoniae BAA-255” value in the experiment on S. pneumoniae BAA-255 was more than 64 µg/mL. For the same compound, the “MIC M. luteus ATCC4698” value against M. luteus ATCC4698 is 64 µg/mL (≈ 34.8 µM). Moreover, the “MIC E. faecalis ATCC29212” value in the experiment on E. faecalis ATCC29212 is more than 64 µg/mL. Moreover, the “MIC E. faecium 7131121 VRE” value against E. faecium 7131121 VRE is more than 64 µg/mL. In addition, the “MIC E. faecium ATCC19579” value in the experiment on E. faecium ATCC19579 is 64 µg/mL (≈ 34.8 µM). For the same compound, the “MIC S. epidermidis NCTC11047” value against S. epidermidis NCTC11047 was found to be 64 µg/mL (≈ 34.8 µM).
Turning to `C=C1NC(=O)C2NC(=O)[C@H](CC(C)C)NC(=O)C(NC(=O)[C@@H]3CSC(C)C(NC(=O)[C@H](Cc4ccccc4)NC(=O)C4NC(=O)[C@@H](N)CSC4C)C(=O)N[C@@H](CC(C)C)C(=O)N4CCC[C@H]4C(=O)NCC(=O)N[C@@H](Cc4c[nH]cn4)C(=O)NCC(=O)NCC(=O)N[C@@H](C(C)C)C(=O)N3)C(C)SC[C@H](NC(=O)[C@H](CCC(=O)O)NC1=O)C(=O)N[C@@H]([C@@H](C)CC)C(=O)NC=CSC2C` (stereo partly drawn) [G8H], the “MIC S. aureus R33 MRSA” value with S. aureus R33 MRSA is 64 µg/mL (≈ 33.6 µM). In addition, the “MIC S. aureus SH1000” value against S. aureus SH1000 is on record as 64, >64 μg/ml. Moreover, the “MIC S. pneumoniae BAA-255” value in the experiment with S. pneumoniae BAA-255 came to 16 µg/mL (≈ 8.39 µM). Further, the “MIC M. luteus ATCC4698” value with M. luteus ATCC4698 was determined as 8 µg/mL (≈ 4.2 µM). For the same compound, the “MIC E. faecalis ATCC29212” value with E. faecalis ATCC29212 is more than 64 µg/mL. Moreover, in the experiment on E. faecium 7131121 VRE, the “MIC E. faecium 7131121 VRE” value was more than 64 µg/mL. In addition, the “MIC E. faecium ATCC19579” value against E. faecium ATCC19579 was more than 64 µg/mL. Also, the “MIC S. epidermidis NCTC11047” value against S. epidermidis NCTC11047 turned out to be 64 µg/mL (≈ 33.6 µM).
In the case of `C=C1NC(=O)C2NC(=O)[C@H](CC(C)C)NC(=O)C(NC(=O)[C@@H]3CSC(C)C(NC(=O)[C@H](Cc4ccccc4)NC(=O)C4NC(=O)[C@@H](N)CSC4C)C(=O)N[C@@H](CC(C)C)C(=O)N4CCC[C@H]4C(=O)NCC(=O)NCC(=O)N[C@@H](Cc4c[nH]cn4)C(=O)NCC(=O)N[C@@H](C(C)C)C(=O)N3)C(C)SC[C@H](NC(=O)[C@H](CCC(=O)O)NC1=O)C(=O)N[C@@H]([C@@H](C)CC)C(=O)NC=CSC2C` (stereo partly drawn) [G9H], the “MIC S. aureus SH1000” value against S. aureus SH1000 was 32 µg/mL (≈ 16.8 µM). In the experiment on S. pneumoniae BAA-255, the “MIC S. pneumoniae BAA-255” value is 16 µg/mL (≈ 8.39 µM). Also, the “MIC M. luteus ATCC4698” value with M. luteus ATCC4698 was less than 4 µg/mL. Moreover, the “MIC E. faecalis ATCC29212” value against E. faecalis ATCC29212 is more than 64 µg/mL. In the experiment with E. faecium 7131121 VRE, the “MIC E. faecium 7131121 VRE” value is more than 64 µg/mL. For the same compound, the “MIC E. faecium ATCC19579” value against E. faecium ATCC19579 was 64 µg/mL (≈ 33.6 µM). The “MIC S. epidermidis NCTC11047” value in the experiment on S. epidermidis NCTC11047 was 32 µg/mL (≈ 16.8 µM).
Take `C=C1NC(=O)C2NC(=O)[C@H](CC(C)C)NC(=O)C(NC(=O)[C@@H]3CSC(C)C(NC(=O)[C@H](Cc4ccccc4)NC(=O)C4NC(=O)[C@@H](N)CSC4C)C(=O)N[C@@H](CC(C)C)C(=O)N4CCC[C@H]4C(=O)N[C@@H](CC(N)=O)C(=O)NCC(=O)NCC(=O)NCC(=O)N[C@@H](C(C)C)C(=O)N3)C(C)SC[C@H](NC(=O)[C@H](CCC(=O)O)NC1=O)C(=O)N[C@@H]([C@@H](C)CC)C(=O)NC=CSC2C` (stereo partly drawn) [G7N]: the “MIC S. aureus SH1000” value in the experiment on S. aureus SH1000 is 64 µg/mL (≈ 34 µM). Also, the “MIC S. pneumoniae BAA-255” value with S. pneumoniae BAA-255 turned out to be 16 µg/mL (≈ 8.5 µM). Besides, in the experiment with M. luteus ATCC4698, the “MIC M. luteus ATCC4698” value was less than 4 µg/mL. In addition, the “MIC E. faecalis ATCC29212” value with E. faecalis ATCC29212 is more than 64 µg/mL. In the experiment on E. faecium 7131121 VRE, the “MIC E. faecium 7131121 VRE” value was more than 64 µg/mL. Further, the “MIC E. faecium ATCC19579” value against E. faecium ATCC19579 was found to be 64 µg/mL (≈ 34 µM). In addition, the “MIC S. epidermidis NCTC11047” value against S. epidermidis NCTC11047 turned out to be 32 µg/mL (≈ 17 µM).
On to `C=C1NC(=O)C2NC(=O)[C@H](CC(C)C)NC(=O)C(NC(=O)[C@@H]3CSC(C)C(NC(=O)[C@H](Cc4ccccc4)NC(=O)C4NC(=O)[C@@H](N)CSC4C)C(=O)N[C@@H](CC(C)C)C(=O)N4CCC[C@H]4C(=O)NCC(=O)NCC(=O)N[C@@H](CO)C(=O)NCC(=O)N[C@@H](C(C)C)C(=O)N3)C(C)SC[C@H](NC(=O)[C@H](CCC(=O)O)NC1=O)C(=O)N[C@@H]([C@@H](C)CC)C(=O)NC=CSC2C` (stereo partly drawn) [G9S], for which the “MIC S. aureus R33 MRSA” value with S. aureus R33 MRSA is recorded as 64, >64 μg/ml. The “MIC S. aureus SH1000” value with S. aureus SH1000 was more than 64 µg/mL. The “MIC S. pneumoniae BAA-255” value against S. pneumoniae BAA-255 was more than 64 µg/mL. Also, the “MIC M. luteus ATCC4698” value against M. luteus ATCC4698 was determined as 64 µg/mL (≈ 34.5 µM). Moreover, the “MIC E. faecalis ATCC29212” value against E. faecalis ATCC29212 was more than 64 µg/mL. The “MIC E. faecium 7131121 VRE” value against E. faecium 7131121 VRE is more than 64 µg/mL. In addition, the “MIC E. faecium ATCC19579” value in the experiment with E. faecium ATCC19579 is more than 64 µg/mL. The “MIC S. epidermidis NCTC11047” value with S. epidermidis NCTC11047 is more than 64 µg/mL.
For `C=C1NC(=O)C2NC(=O)[C@H](CC(C)C)NC(=O)C(NC(=O)[C@@H]3CSC(C)C(NC(=O)[C@H](Cc4ccccc4)NC(=O)C4NC(=O)[C@@H](N)CSC4C)C(=O)N[C@@H](CC(C)C)C(=O)N4CCC[C@H]4C(=O)NCC(=O)NCC(=O)N[C@@H](C)C(=O)NCC(=O)N[C@@H](C(C)C)C(=O)N3)C(C)SC[C@H](NC(=O)[C@H](CCC(=O)O)NC1=O)C(=O)N[C@@H]([C@@H](C)CC)C(=O)NC=CSC2C` (stereo partly drawn) [G9A], the “MIC S. aureus R33 MRSA” value in the experiment with S. aureus R33 MRSA came to 8 µg/mL (≈ 4.35 µM). The “MIC S. aureus SH1000” value against S. aureus SH1000 was 32 µg/mL (≈ 17.4 µM). The “MIC S. pneumoniae BAA-255” value with S. pneumoniae BAA-255 worked out at 8 µg/mL (≈ 4.35 µM). Moreover, the “MIC M. luteus ATCC4698” value against M. luteus ATCC4698 was less than 4 µg/mL. Moreover, the “MIC E. faecalis ATCC29212” value against E. faecalis ATCC29212 was more than 64 µg/mL. In addition, the “MIC E. faecium 7131121 VRE” value with E. faecium 7131121 VRE was more than 64 µg/mL. Also, the “MIC E. faecium ATCC19579” value against E. faecium ATCC19579 turned out to be 64 µg/mL (≈ 34.8 µM). Also, in the experiment on S. epidermidis NCTC11047, the “MIC S. epidermidis NCTC11047” value came to 32 µg/mL (≈ 17.4 µM).
As to `C=C1NC(=O)C2NC(=O)[C@H](CC(C)C)NC(=O)C(NC(=O)[C@@H]3CSC(C)C(NC(=O)[C@H](Cc4c[nH]c5ccccc45)NC(=O)C4NC(=O)[C@@H](N)CSC4C)C(=O)N[C@@H](CC(C)C)C(=O)N4CCC[C@H]4C(=O)NCC(=O)NCC(=O)NCC(=O)NCC(=O)N[C@@H](C(C)C)C(=O)N3)C(C)SC[C@H](NC(=O)[C@H](CCC(=O)O)NC1=O)C(=O)N[C@@H]([C@@H](C)CC)C(=O)NC=CSC2C` (stereo partly drawn) [F3W], the “MIC S. aureus R33 MRSA” value in the experiment on S. aureus R33 MRSA came to 8 µg/mL (≈ 4.29 µM). In addition, the “MIC S. aureus SH1000” value against S. aureus SH1000 stood at 16 µg/mL (≈ 8.58 µM). In the experiment with M. luteus ATCC4698, the “MIC M. luteus ATCC4698” value worked out at 0.5 µg/mL (≈ 0.268 µM). Further, in the experiment on E. faecalis ATCC29212, the “MIC E. faecalis ATCC29212” value came to 32 µg/mL (≈ 17.2 µM). Besides, the “MIC E. faecium 7131121 VRE” value in the experiment with E. faecium 7131121 VRE was 32 µg/mL (≈ 17.2 µM). The “MIC E. faecium ATCC19579” value in the experiment on E. faecium ATCC19579 was found to be 16 µg/mL (≈ 8.58 µM). Further, in the experiment on S. epidermidis NCTC11047, the “MIC S. epidermidis NCTC11047” value came to 8 µg/mL (≈ 4.29 µM).

These data come from PMC2706954, “Dissecting Structural and Functional Diversity of the Lantibiotic Mersacidin” (Chemistry & Biology, 2009).
